Results published in article PMC8469748, “A Method for Rapid Screening, Expression, and Purification of Antimicrobial Peptides” (Microorganisms, 2021).
“Also recorded” adds a separate entry of the source.

Assays:
[1] = tested on: E. coli DH5α; assay: Inhibition zone test (agarose plate, Oxford cup); type: cell-based
Method: To measure AMP activity, the agarose plate method was employed. Microorganisms for inhibition testing were activated, 3–5 single colonies were picked and placed in liquid LB medium, cultured on a shaker at 37 °C for 6 h. Solid LB medium was melted by heating, 500 μL of liquid bacterial culture was added for every 100 mL of medium after cooling slightly, and the mixture was poured into a bacterial plate to solidify. Oxford cups were inserted into the solidified mixed bacterial plate, while being careful not to penetrate the medium completely, so as not to affect the penetration of the test liquid on the plate. Attention was paid to the spacing between the Oxford cups. Corresponding Oxford cups were marked and positive/negative controls (100 μL each) were added. Plates were incubated at 37 °C overnight to observe the antibacterial effects.
The E. coli DH5α mixed bacteria plate was prepared as described above. Two negative controls (HRV 3C Cleavage Buffer and 1 M NaCl) and a positive control (2 mg/mL ampicillin) were included.

[2] = tested on: E. coli; assay: MIC test (96-well plate, OD600); type: cell-based; details: for minimum concentration that inhibited an increase in the OD600 of the bacterial solution (MIC): 96-well plate, final 128 to 0.25 mg/L; for inhibition activity against testing microorganisms (MIC test): AMP expressed and purified in E. coli, up to 128 mg/L
Method: When measuring the minimum inhibitory concentration (MIC) of the expressed and purified AMPs, we performed the test according to the Clinical and Laboratory Standards Association. Specifically, microorganisms to be tested were activated, and five colonies were picked and separately cultured into liquid medium on a shaker (220 rpm) at 37 °C until the absorbance at 600 nm (OD600) reached 0.13–0.17; thus, corresponding to a biomass concentration of ~1 × 10^8 colony-forming units (CFU)/mL. Samples for testing were diluted to 4 mM, and two-fold serial dilutions were performed in a 96-well plate, with the concentration ranging from 100 to 0.195 μM. Each dilution (50 μL) was performed in duplicate. Next, 50 μL of microbial culture containing ~1 × 10^6 CFU/mL was added to each well. After incubating overnight at 37 °C, OD600 was measured using a microplate spectrophotometer.
Figure 8 The schematic diagram of a 96-well plate measuring MIC (data taken from three parallel experiments). Horizontal direction is AMP 1, 2, 6, 13, 16 test rows; Vertical direction 1–10 is the final concentration of 128 mg/L to 0.25 mg/L of these AMPs, respectively; 11 is the negative control; 12 is a positive control, the 20 mg/L ampicillin.
Figure 13B is a schematic diagram of the 96-well plate MIC experiment (data are from three parallel replicates). The horizontal direction is AMP13 from P. pastoris, the vertical direction is the final peptide concentration (128 mg/L to 0.25 mg/L), 11 is the negative control and 12 is the positive control (20 mg/L ampicillin).

[3] = AMP expressed in E. coli and purified, mixed bacteria LB agar plate, Oxford cup, 100 μL liquid per cup, 37 °C overnight
[4] = AMP expressed in E. coli, two-fold dilutions, overnight 37 °C, three parallel experiments

| Compound | Inhibition zone ([1]; positive control, 2 mg/mL ampicillin, E. coli DH5α mixed bacteria plate, test of P. pastoris AMP13) | Inhibition zone ([1]; positive control, ampicillin 200 mg/L, 100 μL per Oxford cup, plates of E. coli-derived AMPs) | Inhibition zone [1, 3] | minimum concentration that inhibited an increase in the OD600 of the bacterial solution (MIC) [2, 4] [µg/mL] | Inhibition zone ([1]; AMP13 produced by P. pastoris (PZEAP13), E. coli DH5α mixed bacteria plate, Oxford cup, 100 μL) | MIC ([2]; AMP13 from P. pastoris, equated from 16 mg/L) [µM] | minimum concentration that inhibited an increase in the OD600 of the bacterial solution (MIC) ([2]; AMP13 produced by P. pastoris (PZEAP13), three parallel replicates) [µg/mL] | effective MIC ([2]; AMP13 purified from P. pastoris, discussion) [µg/mL] | inhibition activity against testing microorganisms (MIC test) [2] |
| --- | --- | --- | --- | --- | --- | --- | --- | --- | --- |
| CC1(C)S[C@@H]2[C@H](NC(=O)[C@H](N)c3ccccc3)C(=O)N2[C@H]1C(=O)O [ampicillin, reference compound] | there was an inhibition zone | there was an inhibition zone | – | – | – | – | – | – | – |
| DSHAKRHHGYKRKFHEKHHSHRGY [AMP16, antimicrobial peptide selected from the AMP library website, expressed as CL7 fusion in E. coli and released by HRV 3C protease] | – | – | there was an inhibition zone | 64 | – | – | – | – | – |
| GFCRCLCRRGVCRCICTR [AMP13, antimicrobial peptide selected from the AMP library website, expressed as CL7 fusion in E. coli and in P. pastoris, released by HRV 3C protease] | – | – | there was an inhibition zone | 32 | showed inhibition activity; also recorded: clear circle of inhibition | 8.1 | 16 | 16 | – |
| ILPWKWPWWPWRR [AMP2, antimicrobial peptide selected from the AMP library website, expressed as CL7 fusion in E. coli and released by HRV 3C protease] | – | – | no inhibition zones | > 128 | – | – | – | – | no inhibition activity; also recorded: did not exhibit detectable antibacterial activity |
| ITPATPFTPAIITEITAAVIA [AMP1, antimicrobial peptide selected from the AMP library website, expressed as CL7 fusion in E. coli and released by HRV 3C protease] | – | – | no inhibition zones | 128 | – | – | – | – | no inhibition activity; also recorded: did not exhibit detectable antibacterial activity |
| VFQFLGKIIHHVGNFVHGFSHVF [AMP6, antimicrobial peptide selected from the AMP library website, expressed as CL7 fusion in E. coli and released by HRV 3C protease] | – | – | no inhibition zones | > 128 | – | – | – | – | no inhibition activity; also recorded: did not exhibit detectable antibacterial activity |
